In one assay the test system is Her-2 in SkBr3 cells. The assay can be described thus: Her-2 depletion in SkBr3 cells as pharmacodynamic marker of cellular efficacy. Type of assay: cell-based. As to conditions: read-out: PD (Her-2 depletion in SkBr3 cells, EC50); SkBr3 cells treated with the inhibitor overnight.
Another assay concerns BT474 breast tumor cells. Conditions: xenografts bearing BT474 breast tumor cells; cited from earlier work.

Take `CC1=CC(=NOCC(=O)N2CCCCC2)Cc2cc(O)cc(O)c2C(=O)OCCC=CCC1` [Compound A1B3C4D1]: the EC50 in the assay with Her-2 in SkBr3 cells was at most 0.5 µM.
Same read-out and setting: in the case of `CC1C=CCCOC(=O)c2c(O)cc(O)cc2CC(=NOCC(=O)N2CCCCC2)C=CC1` (stereo not drawn) [Compound A1B4C4D1] it was at most 0.5 µM.
Regarding `O=C1OCC/C=C/CC/C=C/C(=N/OCC(=O)N2CCCCC2)Cc2c(Cl)c(O)cc(O)c21` [Pochoxime A], the “Effect on tumor in xenografts” value in the assay on BT474 breast tumor cells is listed as “tumor regression”.

As a reminder, the EC50 is the concentration giving half of the maximal effect.
